Holding throughout (assay type): cell-based, Heliothis virescens
One test relates to HEcR with αRXR. Kind of test: Native HEcR reporter gene expression in HEK293 cells co-transfected with αRXR. The following applies: αRXR co-transfected along with effector and reporter. The source says: A third effector construct was made with the 5′ end sequences of pSK16.1 by PCR. The PCR approach involved PCR amplifying the 5′ end sequences using a 5′ oligonucleotide containing a HindIII restriction cloning site, the Kozak consensus sequence followed by nucleotide sequence encoding for a Methionine start and two Arginines to be added to the 5′ end of the amplified fragment: (16H3K 5′ […] 3′; SEQ ID NO: 28), the 3′ oligonucleotide used was HecrNdeI. The resulting fragment was restriction enzyme digested, gel purified and subcloned with an NdeI/NotI 19R fragment into pcDNA3 NdeI/NotI vector. The plasmid was named pcDNA3H3 KHEcR.
The reporter plasmid to be co-transfected with the expression vector contained 4 copies of the Hsp27 ecdysone response element (Riddihough and Pelham, 1987) fused to β-globin promoter and the β-Galactosidase gene. The tandem repeats of the ecdysone response element were synthesised as two complementary oligonucleotides which when annealed produced a double stranded DNA molecule flanked by an SpeI site at the 5′ end and a ClaI site at the 3′ end:
The resulting 135 bp DNA fragment was ligated to the vector pSWBGAL SpeI/ClaI resulting in pSWREcR4 (FIG. 8). The co-transfection of the two plasmids should result in B-galactosidase activity in the presence of ligand. […]
For orientation: A reporter such as luciferase makes a cellular process visible.

The target of test [1] is T1, glucocorticoid/Heliothis ecdysone chimeric receptor (UniProt O18473+P04150).
T1 sequence (P04150+O18473 with tags, fused parts or gaps): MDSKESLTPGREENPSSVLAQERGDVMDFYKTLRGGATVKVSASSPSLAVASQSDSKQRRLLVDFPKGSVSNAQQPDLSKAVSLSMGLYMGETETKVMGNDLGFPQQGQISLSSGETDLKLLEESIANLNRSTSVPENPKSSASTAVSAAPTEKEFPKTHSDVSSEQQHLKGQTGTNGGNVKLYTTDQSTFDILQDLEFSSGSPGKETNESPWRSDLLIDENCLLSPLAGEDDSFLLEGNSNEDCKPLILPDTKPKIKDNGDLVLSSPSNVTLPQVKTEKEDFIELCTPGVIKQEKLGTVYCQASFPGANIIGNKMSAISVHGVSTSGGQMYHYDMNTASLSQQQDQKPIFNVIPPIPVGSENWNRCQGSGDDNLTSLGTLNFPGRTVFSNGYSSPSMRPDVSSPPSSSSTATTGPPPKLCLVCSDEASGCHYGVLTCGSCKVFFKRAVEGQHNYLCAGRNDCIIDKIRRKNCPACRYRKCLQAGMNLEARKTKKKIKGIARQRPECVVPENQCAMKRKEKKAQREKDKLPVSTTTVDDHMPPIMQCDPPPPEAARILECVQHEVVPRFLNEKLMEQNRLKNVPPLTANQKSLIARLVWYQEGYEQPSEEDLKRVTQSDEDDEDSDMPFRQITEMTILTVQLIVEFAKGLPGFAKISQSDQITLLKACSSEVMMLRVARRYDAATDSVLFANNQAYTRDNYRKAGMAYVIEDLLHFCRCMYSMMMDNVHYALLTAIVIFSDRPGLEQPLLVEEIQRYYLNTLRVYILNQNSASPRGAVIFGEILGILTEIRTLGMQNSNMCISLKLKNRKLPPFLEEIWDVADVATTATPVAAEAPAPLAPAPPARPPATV
Nature of the test: HEK293 cells co-transfected with pcDNA3GRHEcR and pSWGRE4 (β-galactosidase reporter). Also noted: expressed in transfected cells; host or cells: HEK293 (A8). The following applies: co-transformed HEK293 cells (FIG. 28). The procedure: Transfections of mammalian cell lines (CHO-K1 Chinese hamster ovary) ATCC number CCL61 or cos-1 (Monkey cell line) were performed using either calcium phosphate precipitation (Gorman, Chapter 6 of “DNA cloning: a practical approach. Vol 2 D. M. Glover ed/.(1985) IRL Press, Oxford) or using LipofectAMINE (Gibco BRL Cat. No. 18324–012, following manufacturer's instructions). […] 293 cells were transfected using analogous methods.
The mammalian expression vector used in this experiment was pcDNA3 (Invitrogen). The GRHEcR 2.7 kb BamHI DNA fragment (isolated from pMF6GRHEcR) was introduced into the pcDNA3 BamHI vector. The recombinants were oriented by restriction enzyme mapping. The DNA sequence of the junctions was determined to ensure correct orientation and insertion (pcDNA3GRHEcR, FIG. 25).
The reporter plasmid for mammalian cell system was produced by taking pSWBGAL plasmid and replacing the CRESW SpeI/ClaI fragment for a synthetic 105 bp DNA fragment containing 4 copies of the glucocorticoid response element (GRE) and flanked by SpeI at the 5′ end and AflII at the 3′ end.
The two oligonucleotides were purified annealed and ligated to pSWBGAL SpeI/AflII to produce pSWGRE4 (FIG. 26).

Test [2] deals with T1, glucocorticoid/Heliothis ecdysone chimeric receptor. Kind of test: Maize protoplast GUS reporter assay with pMF6GRHEcR and p221.9GRE6. Also noted: expressed in transfected cells; host or cells: maize protoplasts (A5); tobacco mesophyll protoplasts (A6); CHO-K1 (A7); HEK293 (A8); stably transformed tobacco plants (A9). The following applies: maize protoplasts.
Procedure: Protoplasts were isolated from a maize suspension culture derived from BE70×A188 embryogenic callus material, which was maintained by subculturing twice weekly in MS0.5mod. (MS medium supplemented with 3% sucrose, 690 mg/l proline, 1 g/l myo-inositol, 0.2 g/l casein acid hydrolysate, 0.5 mg/l 2,4-D, pH 5.6). Cells from suspensions two days post subculture were digested in enzyme mixture (2.0% Cellulase RS, 0.2% Pectolyase Y23, 0.5 M Mannitol, 5 mM CaCl2.2H2O, 0.5% MES, pH 5.6, ˜660 mmol/kg) using ˜10 ml/g cells, incubating at 25° C., dim light, rotating gently for ˜2 hours. The digestion mixture was sieved sequentially through 250 μm and 38 μm sieves, and the filtrate centrifuged at 700 rpm for 3.5 minutes, discarding the supernatant. The protoplasts were resuspended in wash buffer (0.358 M KCl, 1.0 mM NH4NO3, 5.0 mM CaCl2.2H2O, 0.5 mM KH2PO4, pH 4.8, ˜670 mmol/kg) and pelleted as before. This washing step was repeated. The pellet was resuspended in wash buffer and the protoplasts were counted. Transformation was achieved using a Polyethylene glycol method based on Negrutiu et al. Protoplasts were resuspended at 2×10^6/ml in MaMg medium (0.4 M Mannitol, 15 mM MgCl2, 0.1% MES, pH 5.6, ˜450 mmol/kg) aliquotting 0.5 ml/treatment (i.e. 1×10^6 protoplasts/treatment). Samples were heat shocked at 45° C. for 5 minutes then cooled to room temperature. […]

As for `CC(C)CC[C@@H](O)[C@](C)(O)[C@H]1CC[C@@]2(O)C3=CC(=O)[C@]4(O)C[C@@H](O)[C@@H](O)C[C@]4(C)[C@H]3[C@H](O)C[C@]12C` [Muristerone A], the “induction of reporter activity compared to the untreated cells” value in the test with HEcR with αRXR was found to be 9 fold. In addition, in test [1], the “chemical induced reporter gene activity” value is “induction of reporter activity was observed”. In addition, the response of reporter result in test [2] (100 μM) is on record as “no response”.

Take `CCc1ccc(C(=O)NN(C(=O)c2cc(C)cc(C)c2)C(C)(C)C)cc1` [RH5992, 3,5-dimethylbenzoic acid 1-1(1,1-dimethylethyl)-2(4-ethylbenzoyl)hydrazide]: in the test on HEcR with αRXR, the “induction of reporter activity compared to the untreated cells” value is listed as 9 fold. The “chemical induced reporter gene activity” value in test [1] and in test [2] (concentration not printed (FIG. 20)) was “significant chemical induced reporter gene activity” in each case.
